# Test results taken from the supplement of paper PMC6045584.
# ± gives the standard deviation of the averaged measurements.
# Assays:
# SUNITINIB = compound: CCN(CC)CCNC(=O)c1c(C)[nH]c(/C=C2\C(=O)Nc3ccc(F)cc32)c1C [SUNITINIB]; experiment: surviving fraction relative to DMSO-only wells; higher = less growth inhibition; conditions: exposure time: 5 days
# Procedure, shortened: (§1)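 Tumour cell lines were grown to log phase and seeded at 250–500 cells per well in 384-well plates. They were exposed continuously to inhibitors at 0.5, 1, 5, 10, 50, 100, 500 and 1000 nM for five days, beginning 24 hours after seeding. Surviving fraction is CellTiter-Glo luminescence normalised to the median of DMSO-only wells.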
# AZD4547 = compound: COc1cc(CCc2cc(NC(=O)c3ccc(N4CC(C)NC(C)C4)cc3)n[nH]2)cc(OC)c1 [AZD4547]; experiment: as above; conditions: exposure time: 5 days
# Procedure, shortened: as §1
Test System,surviving fraction (SUNITINIB; 0.5 nM),surviving fraction (SUNITINIB; 5 nM),surviving fraction (SUNITINIB; 50 nM),surviving fraction (SUNITINIB; 100 nM),surviving fraction (SUNITINIB; 500 nM),surviving fraction (SUNITINIB; 1000 nM),surviving fraction (AZD4547; 0.5 nM),surviving fraction (AZD4547; 1 nM),surviving fraction (AZD4547; 5 nM),surviving fraction (AZD4547; 10 nM),surviving fraction (AZD4547; 50 nM),surviving fraction (AZD4547; 100 nM),surviving fraction (AZD4547; 500 nM),surviving fraction (AZD4547; 1000 nM),surviving fraction (SUNITINIB; 1 nM),surviving fraction (SUNITINIB; 10 nM)
C33A CERVIX,1.1 ± 0.13,1.18 ± 0.12,1.12 ± 0.049,1.22 ± 0.1,0.647 ± 0.081,0.339 ± 0.019,0.847 ± 0.084,0.948 ± 0.074,0.96 ± 0.027,0.969 ± 0.099,0.915 ± 0.015,0.953 ± 0.1,0.811 ± 0.024,0.75 ± 0.086,,
CAL72 BONE,0.977 ± 0.016,,,1.058 ± 0.0023,0.92 ± 0.0072,0.663 ± 0.044,1.08 ± 0.022,1.096 ± 0.0035,1.05 ± 0.043,0.791 ± 0.067,0.331 ± 0.028,0.257 ± 0.013,0.19 ± 0.031,0.158 ± 0.026,0.995 ± 0.028,
G292 BONE,0.903 ± 0.05,0.938 ± 0.048,0.909 ± 0.032,0.887 ± 0.061,0.553 ± 0.014,0.306 ± 0.0087,0.93 ± 0.062,0.917 ± 0.035,0.801 ± 0.018,0.566 ± 0.0083,0.207 ± 0.0036,0.173 ± 0.011,0.138 ± 0.021,0.107 ± 0.0059,0.947 ± 0.037,0.904 ± 0.027
HCC1395 BREAST,0.977 ± 0.037,0.9396 ± 0.0017,1.09 ± 0.11,1.06 ± 0.17,0.971 ± 0.046,1.01 ± 0.12,0.849 ± 0.077,0.904 ± 0.088,0.849 ± 0.07,0.748 ± 0.11,0.79 ± 0.072,0.804 ± 0.1,0.698 ± 0.06,0.762 ± 0.19,0.829 ± 0.066,0.969 ± 0.094
HUO3N1 BONE,0.907 ± 0.082,0.8743 ± 0.0058,0.817 ± 0.035,0.801 ± 0.036,0.64 ± 0.0053,0.379 ± 0.016,1.01 ± 0.05,0.976 ± 0.015,1.05 ± 0.059,0.95 ± 0.072,0.85 ± 0.022,0.816 ± 0.018,0.693 ± 0.04,0.608 ± 0.018,0.88 ± 0.056,0.82 ± 0.034
LNCAP PROSTATE,1.12 ± 0.06,,1.08 ± 0.093,1.14 ± 0.037,0.854 ± 0.11,0.45 ± 0.033,0.881 ± 0.092,0.995 ± 0.12,0.861 ± 0.036,0.829 ± 0.043,0.821 ± 0.13,0.903 ± 0.037,0.752 ± 0.11,0.857 ± 0.25,1.19 ± 0.081,1.01 ± 0.12
SCC003 HEADNECK,0.834 ± 0.071,0.851 ± 0.036,0.97 ± 0.07,0.919 ± 0.017,0.495 ± 0.02,0.265 ± 0.034,1.05 ± 0.091,1.03 ± 0.014,1.13 ± 0.06,1.1 ± 0.083,1.07 ± 0.021,1.1 ± 0.065,1.02 ± 0.088,0.996 ± 0.071,0.807 ± 0.064,0.784 ± 0.058
